In EP0082266A1, “Substituted 1,5-diaminopentanes, their preparation and pharmaceutical compositions containing them” (BASF Aktiengesellschaft, priority 1981, dated 1983):
Where a name gives a salt, the structure may show the parent alone.

Columns and labels:
[1] = test system: Aconitinarrhythmie der Ratte; test: Antiarrhythmic activity, aconitine-induced arrhythmia in the anaesthetised rat (oral dosing, aconitine i.v. infusion 60 min later); assay type: in vivo, Ratten (Stamm: Sprague Dawley); conditions: for ED50: Rattus norvegicus, po, 1 h, read-out: Wirksame Dosis ED 50 %; for R.W. = Relative Wirksamkeit, bezogen auf Chinidin = 1,00 / Maximale Wirkung Δ % (Verlängerung der Aconitinfusionsdauer): rat, per os; for R.W. = Relative Wirksamkeit, bezogen auf Chinidin = 1,00: relative potency from ED 50 %; for Maximale Wirkung Δ % (Verlängerung der Aconitinfusionsdauer): effect of the maximal tolerated dose
Protocol: Zur Bestimmung der antiarrhythmischen Wirksamkeit werden die Substanzen Ratten (Stamm: Sprague Dawley, Gewicht 200 bis 250 g) oral appliziert. 45 min später werden die Tiere mit Thiobutabarbital-Natrium (100,0 mg/kg i.p.) narkotisiert. Als arrhythmogene Substanz dient Aconitin, das 60 min nach Substanzapplikation i.v. infundiert wird (Dosierungsgeschwindigkeit: 0,005 mg/kg x min). Bei nicht behandelten Tieren (N = 52) treten nach 2,74 + 0,07 min im EKG Arrhythmien auf, deren Eintritt durch Antiarrhythmika dosisabhängig verzögert werden kann.
Aus den linearen Beziehungen zwischen log Dosis (mg/kg) der Prüfsubstanzen und der relativen Verlängerung der Aconitin--Infusionsdauer (Δ%) wird die Dosis bestimmt, welche die Infusionsdauer um 50 % verlängert (ED 50 %).
(§1) Zur weiteren Charakterisierung der Substanzen wird aus der in den Experimenten verwendeten dezimalgeometrischen Dosenfolge (Faktor [formula] ) die antiarrhythmische Wirkung der maximal tolerierten Dosis bestimmt.

[2] = Acute toxicity / tolerability in the rat after oral dosing (toxic symptoms: changes of baseline ECG, cyanosis, convulsions); assay type: in vivo; conditions: in vivo, po; for MTD: per os, highest tolerated dose, at which the maximal effect was read, read-out: Maximale Wirkung Dosis (maximal tolerierte Dosis); for selectivity ratio: read-out: Q = Toxische Dosis / ED 50 %
Description: as §1
(§2) Ferner wird die Dosis ermittelt, bei welcher toxische Symptome (Veränderungen des Ausgangs-EKG, Cyanose, Krämpfe) auftreten.

Ratte = test: as above; assay type: in vivo; conditions: per os; for Toxizität Dosis: dose after which the first toxic symptoms are observed
Description: as §1, §2

| SMILES | ED50 [1] | R.W. = Relative Wirksamkeit, bezogen auf Chinidin = 1,00 [1] | Maximale Wirkung Δ % (Verlängerung der Aconitinfusionsdauer) [1] | MTD [2] | selectivity ratio [2] | Toxizität Dosis (Ratte) | Q = Toxische Dosis / ED 50 % (Ratte; therapeutic width) |
| --- | --- | --- | --- | --- | --- | --- | --- |
| CC(C)C(CN)(CCCN(C)CCc1ccccc1)c1ccccc1 (stereo not drawn) [Beispiel 1, 1-Amino-2-isopropyl-2-phenyl-5-(phenethyl)methylamino-pentan] | 29.4 mg/kg | 1,48 | – | – | – | – | – |
| CC(C)C(CN)(CCCNCCc1ccccc1)c1ccccc1.Cl.Cl (stereo not drawn) [Beispiel 6, 1-Amino-2-isopropyl-2-phenyl-5-(phenethyl)amino--pentan-dihydrochlorid] | 21.6 mg/kg | 2,01 | – | – | – | – | – |
| CCNCC(CCCN(C)CCc1ccccc1)(c1ccccc1)C(C)C (stereo not drawn) [Beispiel 9, 1-Ethylamino-2-isopropyl-2-phenyl-5-(phenethyl)-methyl-amino-pentan-dihydrochlorid] | 11.8 mg/kg | 3,69 | – | – | – | – | – |
| CCCNCC(CCCN(C)CCc1ccccc1)(c1ccccc1)C(C)C (stereo not drawn) [Beispiel 10, 1-(n-Propyl)amino-2-isopropyl-2-phenyl-5-(phenethyl)-methylamino-pentan-dihydrochlorid] | 11.8 mg/kg | 3,69 | 243% | 100 mg/kg | 18 | 215 mg/kg | – |
| CC(C)NCC(CCCN(C)CCc1ccccc1)(c1ccccc1)C(C)C (stereo not drawn) [Beispiel 11, 1-Isopropylamino-2-isopropyl-2-phenyl-5-(phenethyl)-methylamino-pentan-dihydrochlorid] | 6.42 mg/kg | – | – | – | – | – | – |
| CCCCNCC(CCCN(C)CCc1ccccc1)(c1ccccc1)C(C)C (stereo not drawn) [Beispiel 12, 1-(n-Butyl)amino-2-isopropyl-2-phenyl-5-(phenethyl)-methylamino-pentan-dihydrochlorid] | 22.5 mg/kg | 1,93 | – | – | – | – | – |
| CCC(C)NCC(CCCN(C)CCc1ccccc1)(c1ccccc1)C(C)C (stereo not drawn) [Beispiel 13, 1-(sec-Butyl)amino-2-isopropyl-2-phenyl-5-(phenethyl)-methylamino-pentan-dihydrochlorid] | 12.9 mg/kg | 3,37 | 237% | 100 mg/kg | 17 | 215 mg/kg | – |
| CC(C)CNCC(CCCN(C)CCc1ccccc1)(c1ccccc1)C(C)C (stereo not drawn) [Beispiel 14, 1-Isobutylamino-2-isopropyl-2-phenyl-5-(phenethyl)-methylamino-pentan-dihydrochlorid] | 14.3 mg/kg | 3,04 | 287% | 100 mg/kg | 15 | 215 mg/kg | – |
| CCNCC(CCCN(C)CCc1ccc(OC)c(OC)c1)(c1ccc(OC)c(OC)c1)C(C)C (stereo not drawn) [Beispiel 15, 1-Ethylamino-2-isopropyl-2-(3,4-dimethoxyphenyl)-5--[(3,4-dimethoxyphenethyl)methylamino]-pentan-dihydrochlorid] | 17.1 mg/kg | 2,54 | – | – | – | – | – |
| COc1ccc(CCN(C)CCCC(CNC(C)C)(c2ccc(OC)c(OC)c2)C(C)C)cc1OC (stereo not drawn) [Beispiel 17, 1-Isopropylamino-2-isopropyl-2-(3,4-dimethoxyphenyl)-5--[(3,4-dimethoxyphenethyl)methylamino]-pentan-dihydrochlorid] | 26.1 mg/kg | 1,67 | – | – | – | – | – |
| CCNCC(CCCN(C)CCc1ccc(OC)c(OC)c1)(c1cc(OC)c(OC)c(OC)c1)C(C)C (stereo not drawn) [Beispiel 20, 1-Ethylamino-2-isopropyl-2-(3,4,5-trimethoxyphenyl)-5--[(3,4-dimethoxyphenethyl)methylamino]-pentan-dihydrochlorid] | 12.3 mg/kg | 3,54 | 224% | 215 mg/kg | 38 | 464 mg/kg | – |
| CCCNCC(CCCN(C)CCc1ccc(OC)c(OC)c1)(c1cc(OC)c(OC)c(OC)c1)C(C)C (stereo not drawn) [Beispiel 21, 1-(n-Propyl)amino-2-isopropyl-2-(3,4,5-trimethoxyphenyl)-5-[(3,4-dimethoxyphenethyl)methylamino]--pentan-dihydrochlorid] | 23.4 mg/kg | 1,86 | – | – | – | – | – |
| COc1ccc(CCN(C)CCCC(CNC(C)C)(c2cc(OC)c(OC)c(OC)c2)C(C)C)cc1OC (stereo not drawn) [Beispiel 22, 1-Isopropylamino-2-isopropyl-2-(3,4,5-trimethoxyphenyl)-5-[(3,4-dimethoxyphenethyl)methylamino]--pentan-dihydrochlorid] | 24.8 mg/kg | 1,75 | – | – | – | – | – |
| CCCCNCC(CCCN(C)CCc1ccc(OC)c(OC)c1)(c1cc(OC)c(OC)c(OC)c1)C(C)C (stereo not drawn) [Beispiel 23] | 33.8 mg/kg | – | – | – | – | – | – |
| CCC(C)NCC(CCCN(C)CCc1ccc(OC)c(OC)c1)(c1cc(OC)c(OC)c(OC)c1)C(C)C (stereo not drawn) [Beispiel 24] | 17 mg/kg | 2,56 | – | – | – | – | – |
| CCCCNCC(CCCN(C)CCc1ccc(OC)c(OC)c1)(c1ccc(Cl)cc1)C(C)C (stereo not drawn) [Beispiel 27, 1-(n-Butyl)amino-2-isopropyl-2-(4-chlorphenyl)--5-[(3,4-dimethoxyphenethyl)methylamino]-pentan--dihydrochlorid] | 21.5 mg/kg | 2,02 | – | – | – | – | – |
| CNCC(CCCN(C)CCc1ccccc1)c1ccccc1 (stereo not drawn) [Beispiel 28, 1-Methylamino-2-phenyl-5-(phenethyl)methylamino--pentan] | 11.6 mg/kg | 3,75 | – | – | – | – | – |
| CNCC(CCCN(C)CCc1ccccc1)(c1ccccc1)C(C)C (stereo not drawn) [Beispiel 30, 1-Methylamino-2-isopropyl-2-phenyl-5-(phenethyl)methyl-amino-pentan-dihydrochlorid] | 11 mg/kg | 3,96 | 499% | 215 mg/kg | 42 | 464 mg/kg | – |
| CNCC(CCCN(C)CCc1ccc(OC)c(OC)c1)(c1ccc(OC)c(OC)c1)C(C)C (stereo not drawn) [Beispiel 32, 1-Methylamino-2-isopropyl-2-(3,4-dimethoxyphenyl)-5--[(3,4-dimethoxyphenethyl)methylamino]-pentan-dihydrochlorid] | 33.8 mg/kg | – | – | – | – | – | – |
| CNCC(CCCN(C)CCc1ccc(OC)c(OC)c1)(c1cc(OC)c(OC)c(OC)c1)C(C)C (stereo not drawn) [Beispiel 33, 1-Methylamino-2-isopropyl-2-(3,4,5-trimethoxyphenyl)--5-[(3,4-dimethoxyphenethyl)methylamino]-pentan-dihydrochlorid] | 21.5 mg/kg | 2,02 | – | – | – | – | – |
| CN(C)CC(CCCN(C)CCc1ccccc1)c1ccccc1 (stereo not drawn) [Beispiel 34, 1-Dimethylamino-2-phenyl-5-(phenethyl)methylamino--pentan] | 14.7 mg/kg | 2,96 | – | – | – | – | – |
| CN(C)CC(C)(CCCN(C)CCc1ccccc1)c1ccccc1 (stereo not drawn) [Beispiel 35, 1-Dimethylamino-2-methyl-2-phenyl-5-(phenethyl)-methyl-amino-pentan] | 8.02 mg/kg | 5,42 | – | – | – | – | – |
| CCCCC(CCCN(C)CCc1ccccc1)(CN(C)C)c1ccccc1 (stereo not drawn) [Beispiel 36, 1-Dimethylamino-2-(n-butyl)-2-phenyl-5-(phenethyl)--methylamino-pentan] | 8.66 mg/kg | 5,02 | – | – | – | – | – |
| CC(C)C(CCCN(C)CCc1ccccc1)(CN(C)C)c1ccccc1 (stereo not drawn) [Beispiel 37, 1-Dimethylamino-2-isopropyl-2-phenyl-5-(phenethyl)--methylamino-pentan-dihydrochlorid] | 7.99 mg/kg | 5,44 | 423% | 46.4 mg/kg | 13 | 100 mg/kg | – |
| COc1ccc(CCN(C)CCCC(CN(C)C)(c2ccc(OC)c(OC)c2)C(C)C)cc1OC (stereo not drawn) [Beispiel 38, 1-Dimethylamino-2-isopropyl-2-(3,4-dimethoxyphenyl)--5-[(3,4-dimethoxyphenethyl)methylamino]-pentan-dihydrochlorid] | 27.8 mg/kg | 1,57 | – | – | – | – | – |
| CCCCCCCCCCCCC(CCCN(C)CCc1ccccc1)(CN(C)C)c1ccccc1 (stereo not drawn) [Beispiel 40, 1-Dimethylamino-2-(n-dodecyl)-2-phenyl-5-(phenethyl)methylamino-pentan] | 6.88 mg/kg | 6,32 | – | – | – | – | – |
| C=CC1CN2CCC1CC2C(O)c1ccnc2ccc(OC)cc12 (stereo not drawn) [Chinidin, reference compound] | 43.5 mg/kg | ≡ 1,00 | 129% | – | – | 464 mg/kg | ll |
